Key:
[1] = target: T1, SOS1 nucleotide exchange of KRAS (catalytic domain of SOS1, residues 564-1049; wild-type KRAS) (Homo sapiens, UniProt Q07889); experiment: Mode of Action Assay: Inhibition of SOS1 Nucleotide Exchange Activity (TR-FRET); format: biochemical; conditions: TR-FRET signal
T1 construct: tagless catalytic domain of SOS1 (residues 564-1049)
T1 sequence (Q07889 564-1049): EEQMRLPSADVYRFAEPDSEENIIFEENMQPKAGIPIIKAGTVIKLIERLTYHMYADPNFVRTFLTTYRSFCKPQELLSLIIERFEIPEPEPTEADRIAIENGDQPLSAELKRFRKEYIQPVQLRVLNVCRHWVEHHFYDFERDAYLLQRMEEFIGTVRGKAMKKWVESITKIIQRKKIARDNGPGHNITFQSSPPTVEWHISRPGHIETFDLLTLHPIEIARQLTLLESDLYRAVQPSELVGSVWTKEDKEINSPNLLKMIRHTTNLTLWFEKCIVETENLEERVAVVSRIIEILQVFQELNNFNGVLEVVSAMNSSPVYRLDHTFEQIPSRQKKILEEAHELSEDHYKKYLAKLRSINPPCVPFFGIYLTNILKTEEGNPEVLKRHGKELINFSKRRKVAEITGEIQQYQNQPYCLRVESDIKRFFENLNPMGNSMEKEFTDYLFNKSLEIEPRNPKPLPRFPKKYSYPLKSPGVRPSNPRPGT
Procedure, shortened: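 SOS1 catalytic domain (564-1049, 100 nM as diluted) preincubated 20 min with compounds (100 μM–1.7 nM, 11-point 3-fold) in HEPES pH 7.5 buffer with MgCl2. Then mixed with avi-KRAS(1-169), Streptavidin-Tb and EDA-GTP-DY-647P1 for 30 min at room temperature. TR-FRET normalized to DMSO and positive control, triplicates; IC50 by four-parameter logistic fit.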

[2] = target: T2, SOS1 catalytic domain (residues 564-1049) (Homo sapiens, UniProt Q07889); experiment: Binding affinity to SOS1 using Surface Plasmon Resonance (SPR); conditions: avi-tagged SOS1 catalytic domain immobilized on sensor chip; read-out: SOS1 SPR Equilibrium Kd
T2 construct: SOS1 catalytic domain (residues 564-1049) immobilized on a sensor chip
T2 sequence (Q07889 564-1049): T1 sequence (Q07889 564-1049)
Procedure, shortened: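 Avi-tagged human SOS1 catalytic domain (564-1049) captured on streptavidin chip (~6000 RU); compounds flowed at 50 μL/min, 5 μM to 4.9 nM in ten 2-fold steps, in HEPES/NaCl/P20 buffer with 2% DMSO, double-referenced. Kd from end-of-association response plotted versus concentration.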

[3] = system: cellular pERK in PC-9 cells (EGFR Ex19Del); experiment: Potency Assay: pERK; format: cell-based; conditions: Homo sapiens; PC-9 cells (EGFR Ex19Del), 1 hour incubation, AlphaLISA p-ERK1/2; read-out: SOS1 pERK IC50
Text: The purpose of this assay is to measure the ability of test compounds to inhibit SOS1 function in cells. SOS1 activates RAS proteins by catalyzing the conversion of […] to […] in response to receptor tyrosine kinase activation. Activation of RAS induces a sequence of cellular signaling events that results in increased phosphorylation of ERK at […] (pERK). The procedure described below measures the level of cellular pERK in response to test compounds in PC-9 cells (EGFR Ex[…]). PC-9 cells were grown and maintained using media and procedures recommended by the ATCC. On the day prior to compound addition, cells were plated in 384-well cell culture plates (40 μL/well) and grown overnight in a 37° C., 5% CO2 incubator. Test compounds were prepared in 10, 3-fold dilutions in DMSO, with a top concentration of 10 mM. On the day of the assay, 40 nL of test compound was added to each well of cell culture plate using an Echo550 liquid handler (LabCyte). Concentrations of test compound were tested in duplicate with highest test concentration being 10 μM. After compound addition, cells were incubated for 1 hour at 37° C., 5% CO2. Following incubation, culture medium was removed and cells were washed once with phosphate buffered saline. Cellular pERK level was determined using the AlphaLISA SureFire Ultra p-ERK1/2 Assay Kit (PerkinElmer). Cells were lysed in 25 μL lysis buffer, with shaking at 600 RPM at room temperature for 15 minutes. Lysate (10 μL) was transferred to a 384-well Opti-plate (PerkinElmer) and 5 μL acceptor mix was added. The plate was centrifuged at 1000 RPM for 1 minute, and incubated in the dark for 2 hours. Following this incubation, 5 μL of donor mix was added, the plate was sealed and centrifuged at 1000 RPM for 1 minute, and the mixture was incubated for 2 hours at room temperature. Signal was read on an Envision plate reader (PerkinElmer) using standard AlphaLISA settings. Analysis of raw data was carried out in Excel (Microsoft) and Prism (GraphPad). Signal was plotted vs. the decadal logarithm of compound concentration, and IC50 was determined by fitting a 4-parameter sigmoidal concentration response model.

SMILES	IC50 [1] [µM]	Kd [2] [µM]	IC50 [3] [µM]
C[C@@H](Nc1nccn2nc(C3=CCNCC3)nc12)c1cc(N)cc(C(F)(F)F)c1 [Example 53, N-[(1R)-1-[3-amino-5-(trifluoromethyl)phenyl]ethyl]-2-(1,2,3,6-tetrahydropyridin-4-yl)-[1,2,4]triazolo[1,5-a]pyrazin-8-amine]	> 1	≤ 0.4	> 1
Cc1cn2nc(C(=O)N3CC4CC3CN4C)cc2c(N[C@H](C)c2cc(N)cc(C(F)(F)F)c2)n1 (stereo partly drawn) [Example 81]	< 1	≤ 0.4	< 1
C[C@@H](Nc1nc(Cl)cn2nc(C(=O)N3CCOCC3)cc12)c1cc(N)cc(C(F)(F)F)c1 [Example 74]	> 1	> 0.4	< 1
C[C@@H](Nc1nc(Cl)nn2cc(C(=O)N3CC4(COC4)C3)cc12)c1cccc(C(F)F)c1F [Example 100]	< 1	≤ 0.4	< 1
Cc1cn2nc(C(=O)N3CCN4CCC4C3)cc2c(N[C@H](C)c2cc(N)cc(C(F)(F)F)c2)n1 (stereo partly drawn) [Example 82]	< 1	≤ 0.4	< 1
Cc1nc(N[C@H](C)c2cc(N)cc(C(F)(F)F)c2)c2cc(C(=O)N3CC(O)C3)cn2n1 [Example 33, [4-[[(1R)-1-[3-amino-5-(trifluoromethyl)phenyl]ethyl]amino]-2-methyl-pyrrolo[2,1-f][1,2,4]triazin-6-yl]-(3-hydroxyazetidin-1-yl)methanone]	< 1	> 0.4	< 1
C[C@@H](Nc1ncnc2sc(C(=O)N3CCN(C4COC4)CC3)cc12)c1cccc(C(F)F)c1F [Example 84, (R)-(4-((1-(3-(difluoromethyl)-2-fluorophenyl)ethyl)amino)thieno[2,3-d]pyrimidin-6-yl)(4-(oxetan-3-yl)piperazin-1-yl)methanone]	< 1	≤ 0.4	< 1
C[C@@H](Nc1nc(Cl)nc2c1cc(C1=CCNCC1)n2C)c1cc(N)cc(C(F)(F)F)c1 [Example 39, N-[(1R)-1-[3-amino-5-(trifluoromethyl)phenyl]ethyl]-2-chloro-7-methyl-6-(1,2,3,6-tetrahydropyridin-4-yl)pyrrolo[2,3-d]pyrimidin-4-amine]	> 1	≤ 0.4	> 1
C[C@@H](Nc1nc(Cl)cn2cc(C(=O)N3CCOCC3)nc12)c1cc(N)cc(C(F)(F)F)c1 [Example 29, [8-[[(1R)-1-[3-amino-5-(trifluoromethyl)phenyl]ethyl]amino]-6-chloro-imidazo[1,2-a]pyrazin-2-yl]-morpholino-methanone]	> 1	> 0.4	> 1
C[C@@H](Nc1nccc2nc(C(=O)N3CC4(C3)CN(C3CC3)C4)cn12)c1cccc(C(F)F)c1F [Example 90]	< 1	≤ 0.4	< 1
C[C@@H](Nc1nccc2nc(C(=O)N3CC4(C3)CN(C3COC3)C4)cn12)c1cccc(C(F)F)c1F [Example 88]	< 1	≤ 0.4	< 1
C[C@@H](Nc1ncnc2sc(C(=O)N3CCOCC3)cc12)c1cc(N)cc(C(F)(F)F)c1 [Example 65, N-[(1R)-1-[3-amino-5-(trifluoromethyl)phenyl]ethyl]-6-(morpholine-4-carbonyl)thieno[2,3-d]pyrimidin-4-amine]	< 1	≤ 0.4	< 1
Cc1cn2nc(C(=O)N3CCN(C4COC4)CC3)cc2c(N[C@H](C)c2cc(N)cc(C(F)(F)F)c2)n1 [Example 76]	< 1	≤ 0.4	< 1
Cc1nc(N[C@H](C)c2cc(N)cc(C(F)(F)F)c2)c2cc(C(=O)N3CCN(C)CC3)n(C)c2n1 [Example 37, [4-[[(1R)-1-[3-amino-5-(trifluoromethyl)phenyl]ethyl]amino]-2,7-dimethyl-pyrrolo[2,3-d]pyrimidin-6-yl]-(4-methylpiperazin-1-yl)methanone]	> 1	> 0.4	> 1
